Reference: patent publication US4868159A, “Novel substances KS-501 and KS-502 and process for their preparation” (Kyowa Hakko Kogyo Co., Ltd., priority 1987, dated 1989)
Converted amounts (≈) assume the structure as drawn. “Also recorded” adds a separate entry of the source. Read-outs that look alike come from different tables or passages of the source.

Columns and labels:
[1] = Solubility; format: physicochemical
[2] = test system: rabbit platelets; assay: Effect on serotonin release from rabbit platelets; format: cell-based, white rabbit; conditions: for inhibition at 10 µg/mL: 10.0 μg/ml; for inhibition at 30 µg/mL: 30.0 μg/ml
Method: Effect on serotonin release from rabbit platelets
9.25 vol of blood was sampled from the carotid artery of a white rabbit and placed in a FALCON 2070 tube (product of Falcon, Bector Dickinson) containing 0.75 vol of 77 mM ethylenediaminetetraacetic acid (EDTA). The thus obtained blood was centrifuged at 200 x g for 15 minutes to obtain platelet rich plasma (referred to as PRP hereinafter). This PRP was incubated with [2-^14 C]-serotonin (2 μCi/100 ml PRP) at 37° C. for an hour to incorporate [2-^14 C]-serotonin therein. Then, the PRP was centrifuged at 650 x g for 15 minutes to obtain platelet precipitates. After washing with Tris-buffered physiological saline (pH 7.4, containing 1 mM EDTA), the platelet precipitates were suspended in CA^++ -free Tyrode's soluton to reach a final density of 10^9 cells/ml.
To 0.475 ml of the thus prepared [2-^14 C]-serotoninlabeled platelet suspension was added 5 μl of a solution of the test compound. After incubation at 37° C. for 3 minutes, platelet activating factor (final concentration: 10^-9 M) was added as a stimulant, followed by incubation for further 3 minutes. 0.3 ml of the reaction solution was immediately taken and poured into 30 µl of ice-cold 0.1 mM formaldehyde5mM EDTA solution to terminate the reaction. After centrifugation at 3,000 rpm at 0° C. for 10 minutes, 250 μl of the supernatant was taken and the radioactivity was measured with a liquid scintillation counter.
*The rate of inhibition of serotonin release was calculated according to
the following equation.

[3] = test system: rabbit platelets; assay: Effect on platelet aggregation of rabbit platelets; format: cell-based, white rabbit; conditions: for IC50: Oryctolagus cuniculus, Platelet, 37° C., read-out: IC50 (concentration of the test compound showing 50% inhibition), platelet aggregation
Method: Effect on platelet aggreation of rabbit platelets
8.5 vol of blood was sampled from the carotid artery of a white rabbit and placed in a FALCON 2070 tube (product of Falcon, Bector Dickinson) containing 1.5 vol of citrate-dextrose soluton (71 mM citric acid, 85 mM sodium citrate and 111 mM dextrose). The thus obtained blood was centrifuged at 200×g for 15 minutes to obtain PRP. This PRP was centrifuged at 650×g for 10 minutes to obtain platelet precipitates. After washing with Ca^++ -free Tyrode's solution containing 2 mM ethyleneglycol bis(2-aminoethylether) tetraacetic acid (EGTA), the platelet precipitates were again centrifuged at 650 ×g for 10 minutes and washed. The thus obtained platelet precipitates were suspended in Ca^++ -free Tyrode's solution containing 0.25% bovine serum albumin to reach a density of 5×10^8 cells/ml. After the washed platelet suspension was allowed to stand at room temperature for about 30 minutes, 1 mM CaCl2 or 1 mM EGTA was added thereto and the mixture was allowed to stand for further 30 minutes. Then, platelet aggregation was measured.
The aggregation of platelets was determined using an aggregometer, AGGRETEC TE-500 (product of Erma Optical Co., Ltd.) to which the Born method was applied.
First, 10 μl of a test compound soluton was added to 0.2 ml of the washed platelet suspension, while stirring at 1,000 rmp and at 37° C. After incubation at 37° C. for 3 minutes, 10 μl of thrombin (final concentration: 0.05 U/ml) or platelet activating factor (final concentration: 10^-10 M) was added as a stimultant to initiate the reaction. The rate of inhibition of platelet aggregation of the test compound was calculated from the maximum aggregation rate obtained by the use of the test compound and the maximum aggregation rate obtained by the use of only the solvent used for dissolving the test compound, according to the following equation. [formula] A : Maximum aggregation rate of the solvent alone B : Maximum aggregation rate of the test compound
*Concentration of the test compound showing 50% inhibition.

[4] = hexane, carbon tetrachloride, benzene, neutral water, acidic water
[5] = Oryctolagus cuniculus, stimulant platelet activating factor 10^-9 M, 37° C., read-out: Rate of inhibition of serotonin release

Q: Which results are given for `CCCCCCCc1cc(O)cc(OC(=O)c2c(CCCCCCC)cc(O)cc2OC2OC(C(O)CO)C(O)C2O)c1` (stereo not drawn) [KS-501]?
A: Solubility ([1]; KS-501: chloroform, ethyl acetate, acetonitrile, methanol, n-butanol, acetone, tetrahydrofuran, dioxane, dimethylsulfoxide, pyridine, monoethanolamine, acetic acid, alkaline water): Readily soluble; Solubility [1, 4]: Insoluble; Inhibition of serotonin release from platelets (in words) [2]: inhibitory activity on serotonin release from platelets; also recorded: inhibited serotonin release from rabbit platelets, depending on the concentration; inhibition at 3 µg/mL ([2]; Oryctolagus cuniculus, 3.0 μg/ml, stimulant platelet activating factor 10^-9 M, 37° C., read-out: Rate of inhibition of serotonin release): 10.2%; inhibition at 10 µg/mL [2, 5]: 27.1%; inhibition at 30 µg/mL [2, 5]: 66.4%; Inhibition of platelet aggregation (in words) [3]: inhibitory activity on platelet aggregation; also recorded: inhibited platelet aggregation stimulated with thrombin and platelet activating factor; IC50 ([3]; stimulant platelet activating factor, final concentration 10^-10 M): 38 µg/mL (≈ 62.8 µM); IC50 ([3]; stimulant thrombin, final concentration 0.05 U/ml): 57 µg/mL (≈ 94.3 µM)

Q: Which Solubility ([1]; KS-502: chloroform, ethyl acetate, acetonitrile) does the source give for `CCCCCCCc1cc(OC(=O)c2c(CCCCCCC)cc(O)cc2OC2OC(C(O)CO)C(O)C2O)cc(O)c1C(=O)O` (stereo not drawn) [KS-502] here?
A: Soluble

Q: And the Solubility [1, 4]?
A: Insoluble

Q: And the “Inhibition of serotonin release from platelets (in words)” value [2]?
A: inhibitory activity on serotonin release from platelets; also recorded: inhibited serotonin release from rabbit platelets, depending on the concentration

Q: And the inhibition at 10 µg/mL [2, 5]?
A: 2.7%

Q: And the inhibition at 30 µg/mL [2, 5]?
A: 28.9%

Q: And the inhibition at 50 µg/mL ([2]; Oryctolagus cuniculus, 50.0 μg/ml, stimulant platelet activating factor 10^-9 M, 37° C., read-out: Rate of inhibition of serotonin release)?
A: 51.4%
